Results on one molecule are retold here after publication PMC7213978, “The dynamic interplay of host and viral enzymes in type III CRISPR-mediated cyclic nucleotide signalling” (eLife, 2020).

One test deals with T1, Csx1 (Saccharolobus solfataricus, UniProt Q97YD5).
T1 construct: recombinant from plasmid expression construct; homodimer
T1 sequence (Q97YD5 1-377): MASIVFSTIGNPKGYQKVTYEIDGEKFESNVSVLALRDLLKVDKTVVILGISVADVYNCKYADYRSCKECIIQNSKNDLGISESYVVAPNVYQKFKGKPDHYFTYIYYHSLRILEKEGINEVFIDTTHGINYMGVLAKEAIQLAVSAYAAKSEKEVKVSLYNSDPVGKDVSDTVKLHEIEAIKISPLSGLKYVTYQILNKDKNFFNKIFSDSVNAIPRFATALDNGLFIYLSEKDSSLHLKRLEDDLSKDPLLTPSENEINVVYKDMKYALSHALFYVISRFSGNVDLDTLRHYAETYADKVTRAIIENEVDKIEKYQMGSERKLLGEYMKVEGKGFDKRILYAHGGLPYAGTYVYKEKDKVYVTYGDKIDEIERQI
The test can be described thus: native gel electrophoretic mobility shift, quadratic fit. Type of test: binding.

The target in the next test is T2, Crn1 (Sso2081) (Saccharolobus solfataricus, UniProt Q7LYJ6).
T2 construct: recombinant from plasmid expression construct; homodimer
T2 sequence (Q7LYJ6 1-178): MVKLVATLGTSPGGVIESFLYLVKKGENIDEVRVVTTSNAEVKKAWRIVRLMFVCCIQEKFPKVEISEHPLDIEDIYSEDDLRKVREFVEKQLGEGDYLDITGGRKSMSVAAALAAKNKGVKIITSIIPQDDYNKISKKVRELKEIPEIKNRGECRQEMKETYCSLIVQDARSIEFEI
The test can be described thus: native gel electrophoretic mobility shift. Type of test: binding. The following applies: read-out: apparent KD.

For the molecule `Nc1ncnc2c1ncn2[C@@H]1O[C@@H]2COP(=O)(O)O[C@H]3[C@@H](O)[C@H](n4cnc5c(N)ncnc54)O[C@@H]3COP(=O)(O)O[C@H]3[C@@H](O)[C@H](n4cnc5c(N)ncnc54)O[C@@H]3COP(=O)(O)O[C@H]3[C@@H](O)[C@H](n4cnc5c(N)ncnc54)O[C@@H]3COP(=O)(O)O[C@H]2[C@H]1O` [cA4, cyclic tetra-adenylate], the Kd on Csx1 was 130 ± 20 nM; at Crn1 (Sso2081), around 50 nM.
